These results are taken from patent US4444775A, “Substituted imidazo[1,5-A]pyridines” (Ciba-Geigy Corporation, priority 1982, dated 1984).

SMILES strings stand for the structures. Some results are limits rather than exact numbers.

The test system of one experiment is bleeding time. Nature of the experiment: prolongation of bleeding time in the rat. The format is in vivo. The following applies: rats, dose of about 1 mg/kg i.p. or lower. From the text:
For example, in thromboembolism, specific inhibition of the enzyme thromboxane synthetase reduces arachidonic acid induced platelet aggregation involved in clot formation. Experimentally, prolongation of bleeding time in the rat is indicative of a beneficial antithrombotic effect.

Experiment [1] relates to plasma thromboxane B2 and 6-keto-PGF1α. Description: reduction of plasma levels of thromboxane in vivo after arachidonic acid challenge. The conditions noted are these: guinea pig. The procedure: The reduction of plasma levels of thromboxane is determined in vivo on administration of the test compound to guinea pigs in the following manner:
Guinea pigs are dosed with vehicle or test drug and injected intraperitoneally with arachidonic acid (40 mg/kg) 2 hours later. Blood is collected for analysis 1 hour after the arachidonic acid challenge. A single aliquot of each plasma sample is assayed for thromboxane B2 and another aliquot for 6-keto-PGF1 α, the stable metabolites of thromboxane A2 and prostacyclin (PGI2) respectively.

In experiment [2] the test system is arachidonic acid induced pulmonary obstruction. Nature of the experiment: protection against sudden death due to arachidonic acid induced pulmonary obstruction. The class given is in vivo. The following applies: mice, orally, 100 mg/kg.
In experiment [3] the target is T1, prostaglandin cyclooxygenase (sheep seminal vesicle microsomes) (Ovis aries, UniProt P05979).
T1 construct: Lyophilized sheep seminal vesicle microsomes are utilized as the prostaglandin-synthesizing enzyme preparation; from tissue; host or cells: sheep seminal vesicle microsomes, lyophilized
T1 sequence (P05979 25-600): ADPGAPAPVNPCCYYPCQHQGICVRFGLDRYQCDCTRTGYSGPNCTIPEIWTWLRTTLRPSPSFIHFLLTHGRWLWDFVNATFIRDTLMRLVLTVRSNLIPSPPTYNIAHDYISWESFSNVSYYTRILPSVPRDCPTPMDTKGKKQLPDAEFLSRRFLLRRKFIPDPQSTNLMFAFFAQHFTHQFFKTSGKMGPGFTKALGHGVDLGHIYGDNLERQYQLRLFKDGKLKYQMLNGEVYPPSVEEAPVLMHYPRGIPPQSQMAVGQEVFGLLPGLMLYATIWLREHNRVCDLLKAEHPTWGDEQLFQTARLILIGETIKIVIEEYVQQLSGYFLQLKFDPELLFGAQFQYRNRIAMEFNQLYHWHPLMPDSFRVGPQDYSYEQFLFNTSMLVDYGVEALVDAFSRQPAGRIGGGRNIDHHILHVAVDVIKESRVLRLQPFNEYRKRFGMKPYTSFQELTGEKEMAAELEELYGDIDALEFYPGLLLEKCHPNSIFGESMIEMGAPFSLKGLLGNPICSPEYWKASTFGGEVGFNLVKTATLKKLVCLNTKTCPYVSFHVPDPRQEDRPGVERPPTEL
Nature of the experiment: in-vitro effect on prostaglandin cyclooxygenase (conversion of 14C-arachidonic acid to PGE2). The conditions noted are these: read-out: IC50 for inhibition of cyclooxygenase. The class given is biochemical. The procedure:
The in-vitro effect on prostaglandin cyclooxygenase is measured by a modification of the method of Takeguchi et al described in Biochemistry 10, 2372 (1971); the testing procedure is as follows: Lyophilized sheep seminal vesicle microsomes are utilized as the prostaglandin-synthesizing enzyme preparation. The conversion of ^14 C-arachidonic acid to PGE2 is measured. Test compounds (dissolved in buffer, or if necessary, in small amount of ethanol) are added to the incubation mixture. The prostaglandins are extracted and separated by thin-layer chromatography; the plates are scanned, the radioactive zones corresponding to PGE2 are transferred to liquid scintillation vials and counted for radioactivity. IC50 values for inhibition are determined graphically as the concentration of test compound causing a 50% reduction in the amount of PGE2 synthesized.

Experiment [4] concerns the target T2, prostacyclin (PGI2) synthetase (microsomal fraction of bovine aorta) (Bos taurus, UniProt Q29626).
T2 construct: crude PGI2 synthetase in the form of a microsomal fraction of bovine aorta; from tissue; host or cells: bovine aorta, microsomal fraction
T2 sequence (Q29626 1-500): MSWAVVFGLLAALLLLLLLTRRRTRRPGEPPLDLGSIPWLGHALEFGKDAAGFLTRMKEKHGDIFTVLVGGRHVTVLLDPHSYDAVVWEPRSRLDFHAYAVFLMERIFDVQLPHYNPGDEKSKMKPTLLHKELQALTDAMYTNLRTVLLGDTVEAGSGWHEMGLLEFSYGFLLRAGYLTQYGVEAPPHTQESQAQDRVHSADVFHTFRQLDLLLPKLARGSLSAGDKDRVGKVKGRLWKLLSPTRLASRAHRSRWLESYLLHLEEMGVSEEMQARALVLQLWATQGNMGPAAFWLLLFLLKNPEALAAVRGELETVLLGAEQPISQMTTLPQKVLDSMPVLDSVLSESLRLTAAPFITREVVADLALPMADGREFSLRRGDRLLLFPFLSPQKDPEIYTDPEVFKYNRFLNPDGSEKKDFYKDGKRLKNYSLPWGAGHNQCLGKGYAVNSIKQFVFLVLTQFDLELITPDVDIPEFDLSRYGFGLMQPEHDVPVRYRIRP
Nature of the experiment: in-vitro effect on prostacyclin (PGI2) synthetase (6-keto-PGF1α/PGE2 ratio). The format is biochemical. The conditions noted are these: read-out: IC50 for inhibition of prostacyclin synthetase. The procedure: The in-vitro effect on prostacyclin (PGI2) synthetase is measured analogous to the method of Sun et al., Prostaglandins 14, 1055 (1977);
The testing procedure is as follows:
^14 C-Arachidonic acid is incubated with an enzyme mixture consisting of solubilized and partially purified prostaglandin cyclo-oxygenase from sheep seminal vesicles and crude PGI2 synthetase in the form of a microsomal fraction of bovine aorta.
Test compound (dissolved in buffer, or if necessary, in a small amount of ethanol) is placed in the incubation medium. The reaction mixture is incubated in 100 mM Tris HCl (pH 7.5) for 30 minutes at 37° C., acidified to pH 3 and extracted into ethyl acetate. The extract is evaporated to dryness; the residue is dissolved in acetone, spotted on thin-layer plates and chromatographed in a solvent system described by Sun et al. The radioactive zones are located with a scanner; those corresponding to 6-keto-PGF1 α (a stable end product of prostacyclin biotrasformation) and PGE2 are transferred to liquid scintillation vials and counted. The ratio of counts for 6-keto-PGF1 α/PGE2 is calculated for each concentration of test compound used. IC50 values for inhibition are determined graphically as the concentration of test compound at which the ratio of 6-keto-PGF1 α/PGE2 is reduced to 50% of the control value.

Experiment [5] addresses T3, thromboxane synthetase from lysed human platelets (Homo sapiens, UniProt P24557).
T3 construct: crude microsomal preparation of thromboxane synthetase from lysed human platelets; from tissue; host or cells: human platelets, lysed; crude microsomal preparation
T3 sequence (P24557 1-533): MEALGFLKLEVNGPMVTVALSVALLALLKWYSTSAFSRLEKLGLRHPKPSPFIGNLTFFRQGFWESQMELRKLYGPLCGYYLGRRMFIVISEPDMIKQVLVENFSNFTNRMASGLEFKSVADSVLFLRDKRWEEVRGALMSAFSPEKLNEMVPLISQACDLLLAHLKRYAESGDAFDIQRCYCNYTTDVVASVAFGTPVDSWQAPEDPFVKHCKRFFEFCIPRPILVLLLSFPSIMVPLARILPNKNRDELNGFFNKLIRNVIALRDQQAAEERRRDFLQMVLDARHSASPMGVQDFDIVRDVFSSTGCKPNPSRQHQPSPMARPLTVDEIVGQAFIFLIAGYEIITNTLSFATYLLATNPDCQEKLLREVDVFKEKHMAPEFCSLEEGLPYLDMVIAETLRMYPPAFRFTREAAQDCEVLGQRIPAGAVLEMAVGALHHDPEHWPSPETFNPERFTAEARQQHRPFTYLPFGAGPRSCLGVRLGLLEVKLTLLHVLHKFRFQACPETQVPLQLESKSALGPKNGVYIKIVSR
Nature of the experiment: in vitro inhibition of the thromboxane synthetase enzyme (TxB2/PGF2α+β ratio from 14C-arachidonic acid). The class given is biochemical. The following applies: human platelet microsomal enzyme, 30 minutes incubation. The procedure:
Res. Comm. 74, 1432 (1977); the testing procedure is as follows:
The test compound (dissolved in buffer, or if necessary, in a small amount of ethanol) is added to the incubation medium. […] The radioactive products and excess substrate are extracted into ethyl acetate; the extract is evaporated to dryness; the residue is dissolved in acetone, spotted on thin-layer plates and chromatographed in the solvent system toluene: acetone: glacial acetic acid (100 volumes: 100 volumes: 3 volumes).

For the compound `O=C(O)CCCCCc1cccc2cncn12` [Example 2, 5-(5-carboxypentyl)-imidazo[1,5-a]pyridine], the bleeding time entry with bleeding time is recorded as “prolongs bleeding time”. Moreover, the “decrease with respect to prostacyclin (plasma 6-keto-PGF1α)” value in experiment [1] (oral dose 0.25 mg/kg or higher doses) is “no significant decrease”. The “reduction of plasma levels of thromboxane B2” value in experiment [1] (oral dose as low as 0.25 mg/kg) is “over 50%”. For the same compound, in experiment [2], the “protection against sudden death” value is recorded as “protects against sudden death”. For the same compound, the IC50 in experiment [3] was greater than 100 µM; in experiment [4] it was greater than 100 µM; in experiment [5] it was roughly 0.003 µM.

Broadly, the IC50 is the point on the concentration scale where inhibition reaches its midpoint.
